What was measured:
[1] = tested on: CellSensor® ARE-bla Hep G2 cell line; assay: cell-based ARE β-lactamase reporter assay; design: species or system human
Keap1 Kelch domain [2] = biological target: T1, Keap1 Kelch domain (Homo sapiens, UniProt Q14145); assay: FP assay, dose-response retest of HTS hits; type: binding; design: Human Keap1 Kelch domain protein was cloned into expression vector pET15b; inferred from vector pET15b and Ni-NTA purification) (N); made in house; host or cells: E. coli BL21 (DE3)
Experimental: Human Keap1 Kelch domain protein was cloned into expression vector pET15b and transformed into E. coli BL21 (DE3) strain. The protein was purified through Ni-NTA affinity column. Purified protein was stored in the buffer containing 20 mM HEPES (pH7.4), 5 mM DTT at −80° C.
2) 60 mL of 8 μM Ac-9mer-Nrf2 was prepared by taking 0.48 mL of 1 mM Ac-9mer-Nrf2 in 100% DMSO in 60 mL FP buffer 3) 500 mL of 400 nM Keap1 Kelch domain was prepared by taking 9 mL of 0.75 mg/mL Keap1 Kelch domain in 500 mL FP buffer.
10 nM FITC-9mer-Nrf2-NH2, 100 nM Kelch Kelch domain.
The first of these assays is an FP assay that uses a fluorescently labeled Nrf2 peptide amide as the probe and directly measures the displacement of fluorescent probe from the Nrf2-binding site of Keap1 Kelch domain by inhibitors via changes in fluorescence anisotropy. […] The second of the fluorescence-based assays is a time-resolved fluorescence energy transfer (TR-FRET) assay which uses an in situ labeling method we recently developed to attach a lanthanide chelate to Keap1 Kelch domain as the FRET donor and fluorescein-labeled Nrf2 peptide as the acceptor. One advantage of the TR-FRET assay is that it is less susceptible to compound interference than an FP assay.

Keap1 Kelch domain [3] = biological target: T1, Keap1 Kelch domain; assay: SPR-based solution competition assay; type: binding; design: 40 nM of Keap1 Kelch domain was incubated in the presence of test compounds; inferred from vector pET15b and Ni-NTA purification of the one described Kelch preparation) (N); made in house; host or cells: E. coli BL21 (DE3)
[4] = Keap1-retest in dose, 8-point FP dose-response of HTS hits

T1 sequence (Q14145 321-609 limits assumed): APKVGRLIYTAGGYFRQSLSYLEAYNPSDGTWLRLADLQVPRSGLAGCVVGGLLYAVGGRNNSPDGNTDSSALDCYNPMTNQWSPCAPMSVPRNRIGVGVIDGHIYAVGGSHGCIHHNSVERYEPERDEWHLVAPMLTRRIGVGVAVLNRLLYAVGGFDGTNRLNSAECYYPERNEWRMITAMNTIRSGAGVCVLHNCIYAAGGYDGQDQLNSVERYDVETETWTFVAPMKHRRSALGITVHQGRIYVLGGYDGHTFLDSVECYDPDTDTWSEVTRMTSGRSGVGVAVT

Structure (SMILES)	IC50 (Keap1 Kelch domain [2]; [4]) [µM]	further results
Cc1ccc(S(=O)(=O)Nc2cc(C(C(=O)OC(C)C)C(=O)C(F)(F)F)c(O)c3ccccc23)c(C)c1 (racemic) [LH602, 4-[[(2,4-Dimethylphenyl)sulfonyl]amino]-1-hydroxy-α-(2,2,2-trifluoroacetyl)-2-naphthaleneacetic acid, 1-methylethyl ester]	2.7	EC50 ([1]; Homo sapiens, HepG2, read-out: EC50 of ARE-inducing activity): 16 to 18 µM; IC50 (Keap1 Kelch domain [2]; resynthesized compound): 3 µM; Kd (Keap1 Kelch domain [3]; Keap1 Kelch domain, SPR, read-out: Kd (Keap1 binding affinity)): 1.7 µM
O=C(O)[C@@H]1CCCC[C@@H]1C(=O)N1CCc2ccccc2C1CN1C(=O)c2ccccc2C1=O (relative stereo) [LH601C/D]		ARE-inducing activity (in words) [1]: inactive
O=C(O)[C@H]1CCCC[C@H]1C(=O)N1CCCCC1CN1C(=O)c2ccccc2C1=O (relative stereo) [LH641, cis-2-(2-((1,3-dioxoisoindolin-2-yl)methyl)piperidine-1-carbonyl)cyclohexane carboxylic acid]		binding to Keap1 Kelch domain (in words) (Keap1 Kelch domain [3]): complete loss of binding
NS(=O)(=O)c1cc(C(=O)NC2CCSc3ccccc32)ccc1Cl (stereo not drawn) [BRD-A83249228-001-07-1, 3-(Aminosulfonyl)-4-chloro-N-(3,4-dihydro-2H-1-benzothiopyran-4-yl)benzamide]	135	
COc1ccc(C(C)=NNc2ccc([N+](=O)[O-])cc2S(=O)(=O)Nc2ccccc2C(=O)O)c(OC)c1 [BRD-K09114961-001-03-6, 2-[[[2-[2-[1-(2,4-dimethoxyphenyl)ethylidene]hydrazinyl]-5-nitrophenyl]sulfonyl]amino] benzoic acid]	26	
O=C(O)c1cc(N2C(=O)C=CC2=O)cc(N2C(=O)C=CC2=O)c1 [BRD-K11951445-001-04-1, 3,5-Bis(2,5-dihydro-2,5-dioxo-1H-pyrrol-1-yl)-benzoic acid]	19	
COc1cc(NS(=O)(=O)c2ccc(NC(=S)NC(=O)/C=C/c3ccco3)cc2)ncn1 [BRD-K42553821-001-05-9, 3-(2-Furanyl)-N-[[[4-[[(6-methoxy-4-pyrimidinyl)amino]sulfonyl]phenyl]amino]-thioxomethyl]-2-Propenamide]	91	
CC1=C[C@@H]2c3cccc4[nH]cc(c34)C[C@H]2N(C)C1 [BRD-K56215778-001-06-9, 8,9-Didehydro-6,8-dimethyl-ergoline]	37	
O=C1CCCc2oc3c(cc(NS(=O)(=O)c4ccc5c6c(cccc46)C(=O)N5)c4ccccc43)c21 [BRD-K91732811-001-06-9, 1,2-Dihydro-2-oxo-N-(7,8,9,10-tetrahydro-7-oxobenzo[b]naphtho[2,1-d]furan-5-yl) benz[cd]indole-6-sulfonamide]	55	

From patent US10106502B2, “Direct inhibitors of Keap1-Nrf2 interaction as antioxidant inflammation modulators” (Rutgers, The State University of New Jersey, priority 2011, dated 2018)
